# Test results from patent publication US4096263A, “1,2,3,4-Tetrahydroisoquinolines and the preparation thereof” (Fujisawa Pharmaceutical Co., Ltd., priority 1975, dated 1978).
# Where a name gives a salt, the structure may show the parent alone.
# Test system: jejunum of the dog
# Experiment: Intestinal Motility in Dogs (balloon at the jejunum, inhibition of motility in anesthetized mongrel dogs)
# Format: in vivo
# Protocol: Intestinal Motility in Dogs Method: Mongrel dogs weighing 8 to 16 kg which were withheld from any food and water for 24 hours were anesthetized with a combination of urethane (1.5 g/kg) and morphine (15 mg/kg). A balloon was placed at the jejunum of the dog, compressed at a pressure of 10 cm. H2 O, and connected to a strain gauge. Changes in the motility were mainly recorded in terms of amplitude, but taking account of the number of movements. The maximum change of all the determinations, served as the calculation of the 50% inhibition dose (ED50). The time required for 80% recovery was considered as a duration of action.
smiles,measurement,setting,value
"Cn1nnnc1NCC1NCCc2cc(O)c(O)cc21 (centres unmarked) [Test Compound, 1-(1-Methyl-1H-tetrazol-5-yl)aminomethyl-6,7-dihydroxy-1,2,3,4-tetrahydroisoquinoline hydrochloride trihemihydrate]",ED50,"Canis lupus familiaris, anesthetized mongrel dogs (urethane 1.5 g/kg and morphine 15 mg/kg), jejunal balloon at 10 cm. H2O, maximum change of motility, mainly amplitude, route not stated, read-out: ED50 (50% inhibition dose)",1 µg/kg
same,Duration of Action,"time required for 80% recovery, anesthetized mongrel dogs, jejunal balloon, dose and route not stated",25 min
